Entries after “also recorded” stand apart in the source; their conditions may differ.
Assays:
[1] = tested on: COVID-19 with severe ARDS; experiment: Treatment of critical COVID-19 patients with severe ARDS under Emergency Investigational New Drug Applications; format: in vivo, human; conditions: 1500 mg twice a day
Method: Five critical COVID-19 patients admitted to the intensive care unit with severe ARDS were treated with Compound A (caficrestat) 1500 mg twice a day. All patients were on 100% high flow oxygen, had failed all other available treatment options, including anti-IL^6/anti-IL-17 therapy, and were at high risk of rapid progression to mechanical ventilation. The patients were treated under Emergency Investigational New Drug Applications as the last option to prevent mortality.

[2] = tested on: COVID-19 with signs of ARDS and/or ALI; experiment: Treatment of Critical COVID-19 (single-patient example written in present tense); format: in vivo; conditions: one patient, 1500 mg oral twice a day
[3] = tested on: COVID-19 infection; experiment: Open-label prospective phase 2 study of Compound A in high risk patients hospitalized with COVID-19, with matched registry controls; conditions: for Median LOS (95% CI): length of hospital stay, 1500 mg twice daily up to 14 days; for Estimated difference in median LOS / Estimated difference in median LOS (95% CI): Hodges-Lehmann estimate
[4] = 10 participants, 1500 mg twice daily
[5] = eight participants who survived and were discharged

O=C(O)Cc1nn(Cc2nc3cc(C(F)(F)F)ccc3s2)c(=O)c2nccnc12 [Compound A, caficrestat]
patients recovered and discharged from the hospital ([1]; five ICU patients on 100% high flow oxygen): Four of the five
patients who died ([1]; five ICU patients, patient had a do not resuscitate order): One patient
signs of ARDS and/or ALI [2]: diminished
viral burden [2]: reduced
adverse events leading to early discontinuation of treatment [3, 4]: mild-moderate grade adverse events possibly linked to study drug in three participants
safety laboratory monitoring during hospitalization [3, 4]: did not demonstrate any treatment-related abnormal findings
percent mortality ([3]; 10 participants, death during index hospitalization due to COVID-19 complications): 20%
Median LOS (95% CI) ([3]; All Subjects, N=10): 5 (4, 29)
Estimated difference in median LOS ([3]; All Subjects, Compound A vs Match 1 control group (N=16)): 1.5
Estimated difference in median LOS ([3]; All Subjects, Compound A vs Match 2 control group (N=60)): 14
Median LOS (95% CI) ([3]; Surviving Subjects, N=8): 5 (4, 35)
Estimated difference in median LOS (95% CI) ([3]; Surviving Subjects, Compound A vs Match 1 control group (N=11)): 1 (−2, 19)
Estimated difference in median LOS (95% CI) ([3]; Surviving Subjects, Compound A vs Match 2 control group (N=43)): 9 (0, 42)
median hospital length of stay [3, 5]: 5 days
range of hospital length of stay [3, 5]: 3 to 35 days
safety and tolerability ([3]; hospitalized COVID-19 patients with diabetes mellitus and hypertension, 1500 mg twice daily): generally safe and well tolerated
participants who survived and were discharged from the hospital ([3]; of 10 treated participants): Eight of the ten treated patients survived
progression to mechanical ventilation ([3]; ten treated patients): None of the treated patients progressed to mechanical ventilation
mortality compared with matched control groups ([3]; vs control group 1 (31.3%) and control group 2 (28.3%), vs non-high risk population): numerically lower; also recorded: decreased to the level observed for the non-high risk population
length of hospital stay compared with matched control groups ([3]; vs the two matched control groups): numerically less

Source: US20230058134A1, “ALDOSE REDUCTASE INHIBITORS FOR THE TREATMENT OF ACUTE RESPIRATORY DISTRESS SYNDROME, ACUTE LUNG INFLAMMATION/INJURY, CARDIAC INJURY AND ANTI-VIRAL THERAPY” (Applied Therapeutics, Inc., priority 2020, published 2023)
